# Patent US9387225B2, “Gold-platinum based bi-metallic nanocrystal suspensions, electrochemical manufacturing processes therefor and uses for the same” (GR INTELLECTUAL RESERVE, LLC, a Nevada LLC, priority 2011, dated 2016)
# Like-named read-outs stand apart in the source and are kept apart here.
# Experiments:
# HCT116 tumors [1] = assay type: in vivo
# Excerpt: (§1) Female Balb/C, immunologically deficient recipient mice (6-8 weeks old) had tumors implanted therein. The Balb/C donor mice were used to grow HCT116 tumors, which tumors were excised therefrom and subsequently sectioned into small fragments about 2 mm^3 in size. The Balb/C recipient mice were given brief general anesthesia and then one HCT116 2 mm^3 tumor fragment from the donor mice was implanted into each of the left and right flank of the recipient mice using a trocar needle. Once the tumors in the recipient mice had reached a measurable size of about 4×4 mm, as measured by calipers placed against each mouse skin, the recipient mice were randomly placed into treatment groups, 8 per group and the oral treatment was started. 8 mice were in the positive control group (“Cisplatin”) and 8 mice were in the negative control group and received only water (“Control”). Treatment was given exclusively via the drinking bottle shared between the mice in each Treatment group. Cisplatin was given by intraperitoneal injection on day 0. Tumor size was assessed five times per week using a pair of calipers and mouse weight was also obtained by a scale, such measuring occurring until the mouse died (or was removed from the study) or the study was terminated as scheduled.
# • Species: Mice • Strain: Balb/C immunodeficient mice • Source: Harlan • Gender and number: Female, 36 • Age: About 6-8 weeks old at the start of the study. • Identification: Each mouse was given a unique identity number. • Animal husbandry: On receipt, all animals were examined for external signs of ill-health and all unhealthy animals were excluded from further evaluation. Animals were housed in groups of three under specific pathogen free (spf) conditions, in a thermostatically monitored room (22±4° C.) in an animal unit. Animals were equilibrated under standard animal house conditions for at least 72 hours prior to use. The health status of the animals was monitored throughout this period and the suitability of each animal for experimental use was assessed prior to study start. • Housing Animals were housed in groups of 3 per cage in a controlled room, to ensure correct temperature, humidity and 12 hour light/dark cycle for the duration of the study. • Diet: Irradiated pellet diet and water was available ad libitum throughout the holding, acclimatisation and post-dose periods. Compound and Reagents • HCT 116 cell line (ATCC CCL-247). • Phosphate buffered saline (“PBS”). • Test compounds: gold nanocrystal suspension NE-28-10X (NE-28 produced equivalent to • NE10214 in Example 1) Concentrated 10×. • Positive control compound: cisplatin. • Negative control compound: drinking water. Treatment Groups and Dosages • Negative Control Group 1: Days 0-21, given normal drinking water. • Positive Control Group 2: Days 0-21, given normal drinking water; and given a one-time cisplatin dose of 8 mg/kg by intraperitoneal injection (“IP”) on day 0. • Treatment Group 3: Days 0-21, given test compounds as their drinking water. Protocol A: Preparation and Growth of Donor Tumors
# (§2) a.) Preparation of Tumor Cells • 1. Cells were grown in complete medium and all contaminants were excluded. • 2. When the cells were approximately 70-80% confluent, then approximately 3-4 hours before harvesting, the old cell growth medium was replaced with fresh cell growth medium to remove any dead and/or detached cells. • 3. […] The cells were then placed on a glass slide in the traditional manner and were counted using a hemocytometer. • 5. […]
# HCT116 tumors [2] = assay: Xenograft cancer study in mice, HCT116, oral administration (Example 20d); assay type: in vivo, mouse
# Excerpt: as §1
# • Species: Mice • Strain: Balb/C immunodeficient mice • Source: Harlan • Gender and number: Female, 36 • Age: About 6-8 weeks old at the start of the study. • Identification: Each mouse was given a unique identity number. • Animal husbandry: On receipt, all animals were examined for external signs of ill-health and all unhealthy animals were excluded from further evaluation. Animals were housed in groups of three under specific pathogen free (spf) conditions, in a thermostatically monitored room (22±4° C.) in an animal unit. Animals were equilibrated under standard animal house conditions for at least 72 hours prior to use. The health status of the animals was monitored throughout this period and the suitability of each animal for experimental use was assessed prior to study start. • Housing Animals were housed in groups of 3 per cage in a controlled room, to ensure correct temperature, humidity and 12 hour light/dark cycle for the duration of the study. • Diet: Irradiated pellet diet and water was available ad libitum throughout the holding, acclimatisation and post-dose periods. Compound and Reagents • HCT 116 cell line (ATCC CCL-247). • Phosphate buffered saline (“PBS”). • Test compounds: Au—Pt bi-metallic nanocrystal suspensions. • Positive control compound: cisplatin. • Negative control compound: drinking water. Treatment Groups and Dosages • Negative Control Group 1: Days 0-21, given normal drinking water. • Positive Control Group 2: Days 0-21, given normal drinking water; and given a one-time cisplatin dose of 8 mg/kg by intraperitoneal injection (“IP”) on day 0. • Treatment Group 3-5: Days 0-21, given test compounds as their drinking water. Protocol A: Preparation and Growth of Donor Tumors
# as §2
# H460 tumors = assay: Xenograft cancer study in mice, H460, oral administration (Example 20e); assay type: in vivo, mouse
# Excerpt: Female Balb/C, immunologically deficient recipient mice (6-8 weeks old) had tumors implanted therein. The Balb/C donor mice were used to grow H460 tumors, which tumors were excised therefrom and subsequently sectioned into small fragments about 2 mm^3 in size. The Balb/C recipient mice were given brief general anesthesia and then one H4602 mm^3 tumor fragment from the donor mice was implanted into each of the left and right flank of the recipient mice using a trocar needle. Once the tumors in the recipient mice had reached a measurable size of about 4×4 mm, as measured by calipers placed against each mouse skin, the recipient mice were randomly placed into treatment groups, 8 per group and the oral treatment was started. 8 mice were in the positive control group (“Cisplatin”) and 8 mice were in the negative control group and received only water (“Control”). Treatment was given exclusively via the drinking bottle shared between the mice in each Treatment group. Cisplatin was given by intraperitoneal injection on day 0. Tumor size was assessed five times per week using a pair of calipers and mouse weight was also obtained by a scale, such measuring occurring until the mouse died (or was removed from the study) or the study was terminated as scheduled.
# • Species: Mice • Strain: Balb/C immunodeficient mice • Source: Harlan • Gender and number: Female, 36 • Age: About 6-8 weeks old at the start of the study. • Identification: Each mouse was given a unique identity number. • Animal husbandry: On receipt, all animals were examined for external signs of ill-health and all unhealthy animals were excluded from further evaluation. Animals were housed in groups of three under specific pathogen free (spf) conditions, in a thermostatically monitored room (22±4° C.) in an animal unit. Animals were equilibrated under standard animal house conditions for at least 72 hours prior to use. The health status of the animals was monitored throughout this period and the suitability of each animal for experimental use was assessed prior to study start. • Housing Animals were housed in groups of 3 per cage in a controlled room, to ensure correct temperature, humidity and 12 hour light/dark cycle for the duration of the study. • Diet: Irradiated pellet diet and water was available ad libitum throughout the holding, acclimatisation and post-dose periods. Compound and Reagents • H460cell line (ATCC HTB-177). • Phosphate buffered saline (“PBS”). • Test compounds: Au—Pt bi-metallic nanocrystal suspensions. • Positive control compound: cisplatin. • Negative control compound: drinking water. Treatment Groups and Dosages • Negative Control Group 1: Days 0-21, given normal drinking water. • Positive Control Group 2: Days 0-21, given normal drinking water; and given a one-time cisplatin dose of 8 mg/kg by intraperitoneal injection (“IP”) on day 0. • Treatment Group 3-5: Days 0-21, given test compounds as their drinking water. Protocol A: Preparation and Growth of Donor Tumors
# as §2
# [3] = HCT116 xenograft, oral, versus Group 1 (Control)
# [4] = tumor doubling time, HCT116 xenograft, oral
# [5] = tumor doubling time, H460 xenograft, oral
smiles,measurement,setting,value
N.N.[Cl][Pt][Cl] [cisplatin],Growth Delay,HCT116 tumors [1]; [3],0.9 days
same,Maximum % Weight Loss,"HCT116 tumors [1]; mouse, in vivo, po",5%
same,"Maximum % Weight Loss, day (d) of maximum","HCT116 tumors [1]; mouse, in vivo, po",2 days
same,Mean Time to RTV2,HCT116 tumors [1]; [4],3.9 days
same,Median Time to RTV2,HCT116 tumors [1]; [4],3.5 days
same,Growth Delay,HCT116 tumors [2]; [3],1.7 days
same,Maximum % Weight Loss,"HCT116 tumors [2]; mouse, in vivo, po",5%
same,"Maximum % Weight Loss, day (d) of maximum","HCT116 tumors [2]; mouse, in vivo, po",7 days
same,Mean Time to RTV2,HCT116 tumors [2]; [4],5.2 days
same,Median Time to RTV2,HCT116 tumors [2]; [4],5.2 days
same,Growth Delay,"H460 tumors; H460 xenograft, oral, versus Group 1 (Control)",2.5 days
same,Maximum % Weight Loss,"H460 tumors; mouse, in vivo, po",6%
same,"Maximum % Weight Loss, day (d) of maximum","H460 tumors; mouse, in vivo, po",3 days
same,Mean Time to RTV2,H460 tumors; [5],5.0 days
same,Median Time to RTV2,H460 tumors; [5],5.0 days
